Assays:
CDK12/CycK complex [1] = molecular target: T1, CDK12/CycK complex (Homo sapiens, UniProt Q9NYV4); assay: Measurement of CDK12 inhibitory activity by binding assay (BODIPY-FL labeled AT-7519 high concentration conditions, 1320 nM); conditions: inhibitory rate against CDK12 at 1 μM test compound, 1320 nM BODIPY-FL-labeled AT-7519, 8 nM CDK12/CycK
Summary of the method: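 His-tagged CDK12/CycK (8 nM) was incubated with test compound, BODIPY-FL-AT-7519 tracer (1320 nM), Tb-streptavidin (0.2 nM) and biotin-anti-His antibody (0.4 nM) for 120 min at room temperature. TR-FRET ratio (BODIPY-FL/Tb) gave % inhibition versus no-compound control and 30 μM AT-7519 blank; compounds tested at 1 μM.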

[2] = test system: Human breast cancer cells SUM149PT; assay: Antitumor action on SUM149PT cells tumor-bearing model; format: in vivo; conditions: 60 mg/kg orally two times per day for 2 weeks; SUM149PT subcutaneous transplant in BALB/cAJcl-nu/nu mice; average tumor volume increase ratio vs control group
Procedure: Experimental Example 6: Antitumor Action on SUM149PT CELLS Tumor-Bearing Model
Human breast cancer cells SUM149PT were suspended in a solution of Matrigel (BD BIOSCIENCES):HBSS (Thermo Fisher Scientific)=1:1, and subcutaneously transplanted at 3×10^6 cells to the abdomen of BALB/cAJcl-nu/nu (CLEA Japan, Inc.). The tumor diameter of the engrafted tumor was measured and the tumor volume was calculated by the following formula. Tumor volume=major axis×minor axis×minor axis×(1/2)
Individuals having a tumor grown to a volume of about 120 mm^3 were selected, and 5 mice per group were used for the experiment. A suspension of the test compound in 0.5% methylcellulose solution (FUJIFILM Wako Pure Chemical Corporation) was orally administered at a dose of 60 mg/kg (10 mL/kg) two times per day for 2 weeks. The tumor volume was measured over time one day before the start of the administration, and every 4 days from day 3. The next day of the completion of medication for 14 days, the tumor diameter was finally measured and the tumor volume was calculated. The tumor proliferation rate of the test compound administration group in comparison with the control administration group was taken as an average tumor volume increase ratio T/C and calculated by the following formula. […]

A2780 cells = assay: In vitro proliferation suppression test (CellTiter-Glo); format: cell-based, human; conditions: Homo sapiens, 72 h, A2780 cell proliferation inhibitory rate at 1 μM test compound, three days
Summary of the method: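 A2780 cells in RPMI1640 with 10% FBS were exposed to 1 μM compound for three days at 37° C, 5% CO2. CellTiter-Glo luminescence read; inhibition (%) calculated relative to wells without compound.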

CDK12/CycK complex [3] = molecular target: T1, CDK12/CycK complex; assay: Measurement of CDK12 inhibitory activity by binding assay (TR-FRET, 66 nM BODIPY-FL-labeled AT-7519); conditions: inhibitory rate against CDK12 at 1 μM test compound, 66 nM BODIPY-FL-labeled AT-7519, 2 nM CDK12/CycK
Summary of the method: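 His-tagged CDK12/CycK (2 nM) premixed with 66 nM BODIPY-FL-AT-7519 tracer, 0.2 nM Tb-streptavidin and 0.4 nM biotin-anti-His, then incubated with compound 120 min at room temperature. Tracer displacement read as BODIPY-FL/Tb TR-FRET ratio; percent inhibition normalized to no-compound control and 3 μM AT-7519 blank.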

[4] = test system: A2780 intracellular CTD pSer2; assay: CTD pSer2 measurement using human ovarian cancer cell A2780 and In-Cell Western method; format: cell-based; conditions: inhibitory rate against A2780 intracellular CTD pSer2 at 1 μM test compound, 4 hr
Procedure: Experimental Example 3: CTD pSer2 Measurement Using Human Ovarian Cancer Cell A2780 and In-Cell Western Method
A2780 cells (ATCC) were seeded in a 96 well plate at 1.8×10^4 cells/well, and the cells were cultured overnight in a cell culture medium RPMI1640 (FUJIFILM Wako Pure Chemical Corporation) containing 10% FBS (fetal bovine serum) and 1% penicillin/streptomycin. A test compound dissolved in a cell medium was added, and the mixture was stood for 4 hr in a CO2 incubator (37° C.). The cells were fixed with ALTFiX (Falma) for 30 min, and washed 3 times with a washing buffer (20 mM Tris-HCl (pH 7.5), 500 mM NaCl, 0.1% Tween20). 0.1% Triton-X-100 diluted with PBS(−) was added and the mixture was incubated at room temperature for 15 min. Thereafter, a blocking buffer (LI-COR) was added, and the mixture was incubated at room temperature for 1 hr. An anti-CTD pS2 antibody (Abcam) suspended in an antibody diluent (blocking buffer: PBS(−)-diluted 0.1% Tween20=1:1) was added, and the mixture was incubated at room temperature for 1 hr. The mixture was […] with a washing buffer, IRDye800CW-labeled anti-goat antibody (LI-COR) was added, and the mixture was incubated at room temperature for 1 hr. The mixture was washed 3 times with a washing buffer, and the fluorescence wavelength at 800 nm was measured by Aerius (LI-COR).
The inhibitory rate (%) of the test compound against A2780 intracellular CTD pSer2 was calculated by the following formula. Inhibitory rate (%)=(1−(count of test compound−blank)÷(control−blank))×100
The count of the A2780 cell under compound non-addition conditions is indicated as control, and the count under compound non-addition and primary antibody non-addition conditions is indicated as blank.
The results measured by the above-mentioned method (inhibitory rate of the signal value at 1 μM test compound relative to control) are shown below.

CDK12/CycK enzyme = CDK12/CycK enzyme (Homo sapiens, UniProt Q9NYV4); assay: Measurement of CDK12/CycK inhibitory activity (ULight-4E-BP1 peptide phosphorylation, LANCE); format: biochemical; conditions: inhibitory rate against CDK12/CycK at 1 μM test compound, ATP 10 μM or 500 μM
Chain of CDK12/CycK enzyme (Q9NYV4 whole entry, species assumed): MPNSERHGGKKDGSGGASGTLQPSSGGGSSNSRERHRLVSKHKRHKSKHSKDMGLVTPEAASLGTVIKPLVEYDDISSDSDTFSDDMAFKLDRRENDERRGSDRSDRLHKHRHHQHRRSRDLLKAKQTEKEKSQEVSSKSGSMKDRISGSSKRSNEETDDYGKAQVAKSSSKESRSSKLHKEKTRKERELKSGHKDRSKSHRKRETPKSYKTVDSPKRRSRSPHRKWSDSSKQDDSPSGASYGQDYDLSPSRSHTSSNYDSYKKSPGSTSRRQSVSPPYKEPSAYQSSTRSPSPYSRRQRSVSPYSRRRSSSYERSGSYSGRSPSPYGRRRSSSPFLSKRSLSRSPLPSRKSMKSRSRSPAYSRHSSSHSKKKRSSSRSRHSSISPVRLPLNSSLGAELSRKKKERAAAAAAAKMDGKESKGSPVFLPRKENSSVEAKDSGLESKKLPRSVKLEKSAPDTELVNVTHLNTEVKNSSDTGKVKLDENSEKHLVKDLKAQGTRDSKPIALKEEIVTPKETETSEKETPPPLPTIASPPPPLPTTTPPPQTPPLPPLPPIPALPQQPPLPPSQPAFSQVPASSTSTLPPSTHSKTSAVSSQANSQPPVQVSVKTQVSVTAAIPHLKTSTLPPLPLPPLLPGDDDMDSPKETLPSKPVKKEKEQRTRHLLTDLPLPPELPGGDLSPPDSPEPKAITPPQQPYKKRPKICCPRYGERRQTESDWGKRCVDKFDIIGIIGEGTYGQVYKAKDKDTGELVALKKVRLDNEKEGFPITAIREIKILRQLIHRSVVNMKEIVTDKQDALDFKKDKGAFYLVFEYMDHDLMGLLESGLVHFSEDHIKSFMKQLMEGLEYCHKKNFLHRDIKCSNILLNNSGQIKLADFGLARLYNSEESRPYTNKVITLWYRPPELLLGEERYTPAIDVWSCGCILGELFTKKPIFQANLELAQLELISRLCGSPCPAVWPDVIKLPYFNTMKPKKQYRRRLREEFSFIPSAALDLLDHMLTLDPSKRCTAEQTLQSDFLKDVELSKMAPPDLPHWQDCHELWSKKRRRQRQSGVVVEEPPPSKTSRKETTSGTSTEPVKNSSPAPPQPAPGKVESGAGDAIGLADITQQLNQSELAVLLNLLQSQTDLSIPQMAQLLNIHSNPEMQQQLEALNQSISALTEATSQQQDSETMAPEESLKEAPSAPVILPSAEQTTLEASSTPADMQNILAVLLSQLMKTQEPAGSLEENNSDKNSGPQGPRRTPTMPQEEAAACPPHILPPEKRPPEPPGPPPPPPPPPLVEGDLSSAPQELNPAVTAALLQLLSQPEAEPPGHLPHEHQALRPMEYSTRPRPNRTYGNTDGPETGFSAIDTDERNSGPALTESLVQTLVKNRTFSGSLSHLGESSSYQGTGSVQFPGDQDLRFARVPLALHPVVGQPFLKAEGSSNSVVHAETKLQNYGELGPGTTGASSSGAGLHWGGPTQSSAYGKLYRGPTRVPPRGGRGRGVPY
Chain of CDK12/CycK enzyme (O75909 whole entry partner, species assumed): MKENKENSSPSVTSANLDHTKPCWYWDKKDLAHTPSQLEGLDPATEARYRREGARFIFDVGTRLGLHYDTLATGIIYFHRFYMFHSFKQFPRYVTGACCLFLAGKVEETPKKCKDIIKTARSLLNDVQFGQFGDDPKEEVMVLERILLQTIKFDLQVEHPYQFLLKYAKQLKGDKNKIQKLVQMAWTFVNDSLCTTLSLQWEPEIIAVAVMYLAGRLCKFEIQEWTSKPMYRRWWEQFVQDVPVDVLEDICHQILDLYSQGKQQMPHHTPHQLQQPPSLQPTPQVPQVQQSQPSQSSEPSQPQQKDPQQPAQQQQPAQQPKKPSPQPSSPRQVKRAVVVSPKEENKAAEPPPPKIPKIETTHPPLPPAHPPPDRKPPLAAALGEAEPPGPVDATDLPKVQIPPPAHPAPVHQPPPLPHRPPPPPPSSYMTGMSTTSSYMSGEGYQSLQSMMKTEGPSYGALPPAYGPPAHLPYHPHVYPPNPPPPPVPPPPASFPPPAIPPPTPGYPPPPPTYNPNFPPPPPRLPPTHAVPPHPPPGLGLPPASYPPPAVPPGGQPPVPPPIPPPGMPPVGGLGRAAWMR
Procedure: Experimental Example 2: Measurement of CDK12/CycK Inhibitory Activity
A test compound dissolved in DMSO was added to a reaction solution (50 mM HEPES (pH 7.5), 10 mM MgCl2, 1 mM DTT, 0.01% Tween 20, 0.01% BSA) containing CDK12/CycK enzyme and ULight-labeled eIF4E-binding protein 1 (4E-BP1) (Thr37/Thr46) peptide (PerkinElmer), and the mixture was reacted at room temperature for 60 min. […] was added to give an ATP solution with a final concentration of 10 μM or 500 μM to start the enzyme reaction, and the mixture was reacted at room temperature for 60 min. A LANCE Detection buffer (PerkinElmer) containing europium-labeled anti-phosphorylation 4E-BP1 (Thr37/Thr46) antibody (PerkinElmer) and EDTA (final concentration 10 mM) was added to discontinue the reaction. After standing for 60 min, time decomposition fluorescence value (excitation 320 nm, emission 615 nm, 665 nm) was measured by Envision (PerkinElmer). The inhibitory rate (%) of the test compound against CDK12/CyclinK was calculated by the following formula. Inhibitory rate (%)=(1−(count of test compound−blank)÷(control−blank))×100
The count of the CDK12 enzyme reaction mixture under compound non-addition conditions is indicated as control, and the count under compound non-addition and CDK12/CycK enzyme non-addition conditions is indicated as blank.
The results measured by the above-mentioned method (inhibitory rate (%) of the signal value at 1 μM test compound relative to control is shown below.

T1 sequence (Q9NYV4 whole entry, species assumed): as the sequence (Q9NYV4 whole entry, species assumed) above
T1 sequence (O75909 whole entry partner, species assumed): as the sequence (O75909 whole entry partner, species assumed) above

Row | inhibition at 1 µM (CDK12/CycK complex [1]) | inhibition at 1 µM (CDK12/CycK complex [3]) | inhibition at 1 µM (CDK12/CycK enzyme) | SMILES | T/C (%) [2] | inhibition at 1 µM (A2780 cells) | inhibition at 1 µM [4]
1 | 100% |  |  | COc1ncc(-c2cnc(N(C(=O)NCc3ccccc3)[C@H]3CC[C@H](Nc4ncc(C(F)(F)F)c(OC5COC5)n4)CC3)cn2)cn1 [Example 612, 3-benzyl-1-(5-(2-methoxypyrimidin-5-yl)pyrazin-2-yl)-1-(trans-4-((4-(oxetan-3-yloxy)-5-(trifluoromethyl)pyrimidin-2-yl)amino)cyclohexyl)urea] | −22% | 97% | 
2 |  | 98% | 102% | COc1ncc(-c2cnc(N(C(=O)OCc3ccccc3)[C@H]3CC[C@H](Nc4ncc(C#N)c(NC5COC5)n4)CC3)nc2)cn1 [Example 608, benzyl (trans-4-((5-cyano-4-(oxetan-3-ylamino)pyrimidin-2-yl)amino)cyclohexyl) (2′-methoxy-5,5′-bipyrimidin-2-yl)carbamate] |  | 99% | 44%
3 |  | 103% | 100% | COc1ncc(-c2cnc(N(C(=O)NCc3ccccc3)[C@H]3CC[C@H](Nc4ncc(C#N)c(N5CCCC(O)CC5)n4)CC3)nc2)cn1 (stereo partly drawn) [Example 596, 3-benzyl-1-(trans-4-((5-cyano-4-(4-hydroxyazepan-1-yl)pyrimidin-2-yl)amino)cyclohexyl)-1-(2′-methoxy-5,5′-bipyrimidin-2-yl)urea] |  | 99% | 71%

Continued, compound first:

Row | SMILES | inhibition at 1 µM (CDK12/CycK complex [1]) | inhibition at 1 µM (CDK12/CycK complex [3]) | inhibition at 1 µM (CDK12/CycK enzyme) | T/C (%) [2] | inhibition at 1 µM (A2780 cells) | inhibition at 1 µM [4]
4 | Cn1ccc(-c2ccc(N(C(=O)NCc3ccccc3)[C@H]3CC[C@H](Nc4ncc(C#N)c(NC5COC5)n4)CC3)cc2)cc1=O [Example 530, 3-benzyl-1-(trans-4-((5-cyano-4-(oxetan-3-ylamino)pyrimidin-2-yl)amino)cyclohexyl)-1-(4-(1-methyl-2-oxo-1,2-dihydropyridin-4-yl)phenyl) urea] |  | 100% | 104% |  | 97% | 64%
5 | Cn1cc(-c2ccc(N(C(=O)NCc3ccccc3)[C@H]3CC[C@H](Nc4ncc(C(F)(F)F)c(N5CCC6(COC6)C5)n4)CC3)nc2)cn1 [Example 566, 3-benzyl-1-(5-(1-methyl-1H-pyrazol-4-yl)pyridin-2-yl)-1-(trans-4-((4-(2-oxa-6-azaspiro[3.4]octa-6-yl)-5-(trifluoromethyl)pyrimidin-2-yl)amino)cyclohexyl)urea] |  | 102% | 100% |  | 98% | 72%
6 | COc1ncc(-c2ccc(N(C(=O)NCc3ccccc3F)[C@H]3CC[C@H](Nc4ncc(C#N)c(NC5COC5)n4)CC3)nc2)cn1 [Example 582, 1-(trans-4-((5-cyano-4-(oxetan-3-ylamino)pyrimidin-2-yl)amino)cyclohexyl)-3-(2-fluorobenzyl)-1-(5-(2-methoxypyrimidin-5-yl)pyridin-2-yl)urea] |  | 91% | 110% |  | 97% | 72%
7 | Cn1cc(-c2ccc(N(C(=O)NCc3ccccc3)[C@H]3CC[C@H](Nc4ncc(C#N)c(-c5cncc(S(C)(=O)=O)c5)n4)CC3)nc2)cn1 [Example 440, 3-benzyl-1-(trans-4-((5-cyano-4-(5-(methylsulfonyl)pyridin-3-yl)pyrimidin-2-yl)amino)cyclohexyl)-1-(5-(1-methyl-1H-pyrazol-4-yl)pyridin-2-yl) urea] |  | 99% | 101% |  | 98% | 54%
8 | COc1ncc(-c2ccc(N(C(=O)NCc3ccccc3)[C@H]3CC[C@H](Nc4ncc(C#N)c(NC5COC5)n4)CC3)nc2)cn1 [Example 553, 3-benzyl-1-(trans-4-((5-cyano-4-(oxetan-3-ylamino)pyrimidin-2-yl)amino)cyclohexyl)-1-(5-(2-methoxypyrimidin-5-yl)pyridin-2-yl)urea] |  | 100% | 106% |  | 98% | 74%
9 | Cc1cc(-c2nc(N[C@H]3CC[C@H](N(C(=O)NCc4ccccc4)c4ccc(-c5cnn(C)c5)cn4)CC3)ncc2C#N)[nH]n1 [Example 469, 3-benzyl-1-(trans-4-((5-cyano-4-(3-methyl-1H-pyrazol-5-yl)pyrimidin-2-yl)amino)cyclohexyl)-1-(5-(1-methyl-1H-pyrazol-4-yl)pyridin-2-yl) urea] |  | 94% | 103% |  | 97% | 62%
